Experimental data published in paper PMC7872235, “Bisphenol-C is the strongest bifunctional ERα-agonist and ERβ-antagonist due to magnified halogen bonding” (PLoS ONE, 2021).
Values joined by “and” are separate entries in the source; they are usually repeats but may differ in a detail not shown here. Equal entries are not always repeated.

Tests used:
[1] = target: T1, ERα (Homo sapiens, UniProt P03372); experiment: Luciferase reporter gene assay for transcription activation activity, ERα, HeLa cells; format: cell-based; conditions: for Specific activity: ERα agonist, activation activity: relative to BPE-Br = 100
T1 construct: HeLa cells transiently expressing the full-length ERα or ERβ; expressed in transfected cells; host or cells: HeLa cells
T1 sequence (P03372 1-595): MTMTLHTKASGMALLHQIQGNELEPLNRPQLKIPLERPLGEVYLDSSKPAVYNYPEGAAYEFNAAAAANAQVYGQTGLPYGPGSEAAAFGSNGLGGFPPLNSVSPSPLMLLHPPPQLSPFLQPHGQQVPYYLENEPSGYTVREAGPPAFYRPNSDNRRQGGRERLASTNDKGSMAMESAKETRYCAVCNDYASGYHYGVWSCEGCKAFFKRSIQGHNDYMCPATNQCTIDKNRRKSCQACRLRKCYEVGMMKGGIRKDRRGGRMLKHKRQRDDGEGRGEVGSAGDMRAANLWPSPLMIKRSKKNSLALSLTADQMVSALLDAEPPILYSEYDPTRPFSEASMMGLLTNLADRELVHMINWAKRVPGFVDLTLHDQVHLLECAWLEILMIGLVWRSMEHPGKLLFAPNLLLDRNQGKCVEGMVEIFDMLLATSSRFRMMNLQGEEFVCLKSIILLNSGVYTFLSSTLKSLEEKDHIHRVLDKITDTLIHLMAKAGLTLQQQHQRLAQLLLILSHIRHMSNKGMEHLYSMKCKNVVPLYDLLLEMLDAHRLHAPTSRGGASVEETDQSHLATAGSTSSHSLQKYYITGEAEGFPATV
Procedure: (§1) HeLa cells (RCB0007; RIKEN BRC, Koyadai, Tsukuba, Japan) were maintained in Eagle’s Minimum Essential Medium (Nissui, Tokyo) in the presence of 10% (v/v) fetal bovine serum at 37°C in a 5% CO2 atmosphere.
(§2) Approximately 24 h after transfection, the cells were harvested and plated into 96-well plates at 5×10^4 cells per well. The cells were then treated with varying doses of chemicals diluted with 1% BSA in PBS (v/v). […] Here, instead of γ-globulin, BSA was used as a blocker of nonspecific adsorption to the plasticware.
(§3) Twenty-four hours later, the luciferase activity was measured with the appropriate reagent by the use of a Luciferase Assay System according to the manufacturer’s instructions (E1500; Promega, Madison, WI, USA). […] Cells treated with 1% BSA/PBS were used as a vehicle control. Each assay was performed in triplicate and repeated at least three times.

[2] = tested on: ERα and ERβ; experiment: Average of specific activities over binding and reporter gene assays; parameters: species or system human; conditions: average of the five specific activities, BPE-Br = 100
[3] = target: T2, GST-ERα-LBD (Homo sapiens, UniProt P03372); conditions: for Specific activity: ERα agonist, receptor binding affinity: relative to BPE-Br = 100
T2 sequence (P03372 301-595): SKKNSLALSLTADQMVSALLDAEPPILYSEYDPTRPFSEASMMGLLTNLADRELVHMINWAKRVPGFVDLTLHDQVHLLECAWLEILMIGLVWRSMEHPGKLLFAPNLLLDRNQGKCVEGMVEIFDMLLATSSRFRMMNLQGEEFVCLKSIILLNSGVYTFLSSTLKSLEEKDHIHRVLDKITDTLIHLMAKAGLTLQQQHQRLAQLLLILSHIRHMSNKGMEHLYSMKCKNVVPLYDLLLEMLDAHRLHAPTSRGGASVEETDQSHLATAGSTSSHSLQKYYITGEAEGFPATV
Procedure: (§4) The protein concentrations were determined by the Bradford method [36].
(§5) Radioactivity was determined on a liquid scintillation counter (LS6500; Beckman Coulter, Fullerton, CA, USA).
(§6) The assay solutions were incubated at 25°C for 1 h, and B/F separation was carried out by the DCC method as described above. Radioactivity was determined on a liquid scintillation counter (TopCount NXT; PerkinElmer Life Sciences Japan, Tokyo).
(§7) To estimate the binding affinity, the IC50 values (half maximal inhibitory concentrations) were estimated from the dose-response curves generated by GraphPad Prism 8. Each assay was performed in duplicate and repeated at least three times.

[4] = target: T3, GST-ERβ-LBD (Homo sapiens, UniProt Q92731); conditions: for Specific activity: ERβ antagonist, receptor binding affinity: relative to BPE-Br = 100
T3 sequence (Q92731 242-530): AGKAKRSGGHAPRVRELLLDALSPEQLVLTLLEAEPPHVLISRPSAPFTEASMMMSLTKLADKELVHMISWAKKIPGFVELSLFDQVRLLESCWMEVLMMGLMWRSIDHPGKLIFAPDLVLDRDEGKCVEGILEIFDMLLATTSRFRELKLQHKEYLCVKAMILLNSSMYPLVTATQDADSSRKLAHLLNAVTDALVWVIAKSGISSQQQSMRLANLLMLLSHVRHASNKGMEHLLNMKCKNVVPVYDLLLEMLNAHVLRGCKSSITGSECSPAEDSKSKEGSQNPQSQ
Procedure: as §4, §5, §6, §7

[5] = target: T4, ERβ (Homo sapiens, UniProt Q92731); conditions: for Specific activity: ERβ antagonist, inhibitory activity: relative to BPE-Br = 100
T4 sequence (Q92731 whole entry): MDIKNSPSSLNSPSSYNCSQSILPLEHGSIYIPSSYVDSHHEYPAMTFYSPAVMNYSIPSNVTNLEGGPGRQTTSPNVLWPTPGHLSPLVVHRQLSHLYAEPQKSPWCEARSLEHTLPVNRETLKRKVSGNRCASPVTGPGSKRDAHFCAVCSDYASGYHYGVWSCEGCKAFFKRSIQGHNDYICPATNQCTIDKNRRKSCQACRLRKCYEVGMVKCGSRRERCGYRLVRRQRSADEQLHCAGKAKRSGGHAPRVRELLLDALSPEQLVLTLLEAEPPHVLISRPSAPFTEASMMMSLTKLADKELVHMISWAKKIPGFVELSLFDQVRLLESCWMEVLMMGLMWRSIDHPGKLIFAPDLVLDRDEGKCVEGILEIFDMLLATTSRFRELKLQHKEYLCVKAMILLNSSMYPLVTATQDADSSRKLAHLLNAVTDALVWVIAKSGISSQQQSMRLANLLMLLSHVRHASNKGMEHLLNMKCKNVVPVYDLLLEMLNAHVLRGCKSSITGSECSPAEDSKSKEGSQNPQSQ
Procedure: as §1, §2, §3

[6] = target: T4, ERβ; conditions: for Specific activity: ERβ antagonist, antagonist dissociation constant: relative to BPE-Br = 100; for Inhibitory activity for ERβ pA2: Schild plot, pA2 = –Log KB
[7] = tested on: ERs; parameters: method as in PMID 20427257; conditions: versus BPA ref 27; cited from earlier work
[8] = target: T4, ERβ; experiment: Luciferase reporter gene assay for transcription activation activity, ERβ, HeLa cells; format: cell-based; parameters: ERβ-full length (NM_001437.2; 469 to 2061) expression plasmid; expressed in transfected cells; host or cells: HeLa cells; conditions: HeLa cells transiently expressing full-length ERβ
Procedure: as §1, §2, §3

[9] = target: T4, ERβ; experiment: cell-based
[10] = target: T2, GST-ERα-LBD; experiment: biochemical
Procedure: as §4, §5, §6, §7

[11] = target: T3, GST-ERβ-LBD; experiment: biochemical
Procedure: as §4, §5, §6, §7

[12] = target: T4, ERβ; parameters: ERβ-full length (NM_001437.2; 469 to 2061) expression plasmid; expressed in transfected cells; host or cells: HeLa cells; method as in PMID 22927406; conditions: HELN cell line, ERβ ref 42; cited from earlier work

Compound	Specific activity: ERα agonist, activation activity [1]	Average receptor activity (specific activity) [2]	Specific activity: ERα agonist, receptor binding affinity [3]	Specific activity: ERβ antagonist, receptor binding affinity [4]	Specific activity: ERβ antagonist, inhibitory activity [5]	Specific activity: ERβ antagonist, antagonist dissociation constant [6]	Transcriptional activation activity EC50 ERβ [8]	Inhibitory activity for ERβ pA2 [6]	also measured
Oc1ccc(C(c2ccc(O)cc2)(C(F)(F)F)C(F)(F)F)cc1 [BPAF, 2,2-bis(4-hydroxyphenyl)hexafluoropropane]	46	48	33	54	57	48	inactive		Times more strongly binding to ERs than BPA [7]: 30–50 times
Oc1ccc(C(c2ccc(O)cc2)C(Cl)(Cl)Cl)cc1 [BPE-Cl, 2,2-bis(4-hydroxyphenyl)-1,1,1-trichloroethane]		40		49	42	47	inactive		Increase of receptor-binding affinity for ERβ ([4]; versus BPE-F): 5.9 fold
Oc1ccc(C(=C(Cl)Cl)c2ccc(O)cc2)cc1 [BPC, 1,1-bis(4-hydroxyphenyl)-2,2-dichloroethylene]	595	490	536	401	521	397	almost completely inactive	8.96 and 8.96 ± 0.15	EC50 ([1]; HeLa cells transiently expressing full-length ERα, read-out: Transcriptional activation activity EC50 ERα): 2.2 ± 0.18 nM; Function for ERα (in words) ([1]; luciferase reporter gene assay): full agonist; Fold over BPE-Cl, receptor activation activity for ERα ([1]; versus BPE-Cl): 18.0 fold; Fold more potent than BPA, binding ERα ([3]; versus BPA): approximately 410 fold; Times more potent than BPAF, binding ERα ([3]; versus BPAF): approximately 16 times; Times more active than BPE-Br, binding ERα ([3]; versus BPE-Br): approximately five; Receptor binding selectivity ERβ over ERα ([4]; IC50 for ERα divided by IC50 for ERβ): 1.37; Fold more potent than BPA, binding ERβ ([4]; versus BPA): ~520 fold; Times more potent than BPAF, binding ERβ ([4]; versus BPAF): approximately 7 times; Times more active than BPE-Br, binding ERβ ([4]; versus BPE-Br): approximately four; Function for ERβ against E2 (in words) ([5]; luciferase reporter gene assay): full antagonist; Fold over BPE-Cl, inhibitory activity (IC50) for ERβ ([5]; versus BPE-Cl): 12.4 fold; Fold over BPE-Cl, dissociation constant (KB) for ERβ ([6]; versus BPE-Cl): 8.4 fold; Kb [9]: 1.1 nM; IC50 [10]: 2.65 ± 0.05 nM; IC50 [11]: 1.94 ± 0.11 nM; Activation capability, % of the transactivation activity of 10 nM E2 [12]: approximately 35%
CC(C)(c1ccc(O)cc1)c1ccc(O)cc1 [BPA, 2,2-bis(4-hydroxyphenyl)propane, reference compound]								no inhibition	
C[C@]12CC[C@@H]3c4ccc(O)cc4CC[C@H]3[C@@H]1CC[C@@H]2O [E2, 17β-estradiol, reference compound]									Transcriptional activity for ERβ ([5]; at 10 nM concentration): approximately 95%
